Data as given in ChEMBL document CHEMBL1201862, “PubChem BioAssay data set” (2004).
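Dose response: 5 concentrations. Exposure: 48 h. Format: 96-well plates. Endpoint: linear interpolation; highest concentration if not reached. GI50 = concentration required for 50% inhibition of growth.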 Activity calls are given as the source filed them. Cut-off read from the data, not from the text of the source: active = GI50 up to about 1.1 µM and inactive = higher.

Experiments:
Assay in all cases: NCI-60 cell line screen, 48 h
M14 = tested on: M14
SK-MEL-5 = tested on: SK-MEL-5
UO-31 = tested on: UO-31
UACC-62 = tested on: UACC-62
RPMI-8226 = tested on: RPMI-8226
NCI-H226 = tested on: NCI-H226
IGROV-1 = tested on: IGROV-1
OVCAR-5 = tested on: OVCAR-5
SN12C = tested on: SN12C
SNB-19 = tested on: SNB-19
MOLT-4 = tested on: MOLT-4
786-0 = tested on: 786-0
Malme-3M = tested on: Malme-3M
SW-620 = tested on: SW-620
LOX IMVI = tested on: LOX IMVI
KM12 = tested on: KM12

Row | SMILES | GI50 (M14) | GI50 (SK-MEL-5) | GI50 (UO-31) | GI50 (UACC-62) | GI50 (RPMI-8226) | GI50 (NCI-H226) | GI50 (IGROV-1) | GI50 (OVCAR-5) | GI50 (SN12C) | GI50 (SNB-19) | GI50 (MOLT-4) | GI50 (786-0) | GI50 (Malme-3M) | GI50 (SW-620) | GI50 (LOX IMVI) | GI50 (KM12)
1 | O=C(CC1C(=O)Nc2ccccc2S1(=O)=O)Nc1ccc(Cl)cc1 (stereo not drawn) | 31 µM (inactive) | 21.2 µM (inactive) | 17.1 µM (inactive) | 43 µM (inactive) | 4.84 µM (inactive) | 32.2 µM (inactive) | 17.2 µM (inactive) | 78.9 µM (inactive) | 34 µM (inactive) | 18.8 µM (inactive) | 13.5 µM (inactive) | 14.5 µM (inactive) | 22.7 µM (inactive) | 31.3 µM (inactive) | 16.9 µM (inactive) | –
2 | CCOC(=O)C1([Se]c2ccccc2)CCCC1=O (stereo not drawn) | 21.3 µM (inactive) | 20.1 µM (inactive) | 23.6 µM (inactive) | 14.7 µM (inactive) | 23.3 µM (inactive) | 29 µM (inactive) | 18.6 µM (inactive) | 40.8 µM (inactive) | 15 µM (inactive) | 44.1 µM (inactive) | 22.3 µM (inactive) | 14.2 µM (inactive) | 32.6 µM (inactive) | – | 13.1 µM (inactive) | 30.9 µM (inactive)
3 | COC1CC(O)C(OC(=O)c2ccccc2)C(C)O1 (stereo not drawn) | > 100 µM (inactive) | > 100 µM (inactive) | – | > 100 µM (inactive) | > 100 µM (inactive) | > 100 µM (inactive) | > 100 µM (inactive) | > 100 µM (inactive) | > 100 µM (inactive) | > 100 µM (inactive) | > 100 µM (inactive) | > 100 µM (inactive) | > 100 µM (inactive) | > 100 µM (inactive) | > 100 µM (inactive) | > 100 µM (inactive)
4 | CC1(c2cccc(C3CC4(CCC3=O)OCCCCO4)c2)OCCO1 (stereo not drawn) | > 100 µM (inactive) | > 100 µM (inactive) | > 100 µM (inactive) | > 100 µM (inactive) | > 100 µM (inactive) | > 100 µM (inactive) | > 100 µM (inactive) | > 100 µM (inactive) | > 100 µM (inactive) | > 100 µM (inactive) | > 100 µM (inactive) | > 100 µM (inactive) | > 100 µM (inactive) | > 100 µM (inactive) | > 100 µM (inactive) | > 100 µM (inactive)
5 | C=C1C(=O)C23CC1CCC2C12CO[C@@H]4OCC(C)(CC[C@@H]1OC3=O)C42 (stereo partly drawn) | 1.31 µM (inactive) | 14.8 µM (inactive) | 9.71 µM (inactive) | 11.7 µM (inactive) | 1.57 µM (inactive) | 20.7 µM (inactive) | 6.95 µM (inactive) | 15.8 µM (inactive) | 8.32 µM (inactive) | 8 µM (inactive) | 3.01 µM (inactive) | 2.24 µM (inactive) | 2.3 µM (inactive) | 2.49 µM (inactive) | – | 5.43 µM (inactive)
6 | CCN(CC)CCCNC(=O)c1ccc([N+](=O)[O-])cc1O | > 100 µM (inactive) | > 100 µM (inactive) | > 100 µM (inactive) | > 100 µM (inactive) | – | > 100 µM (inactive) | > 100 µM (inactive) | > 100 µM (inactive) | > 100 µM (inactive) | > 100 µM (inactive) | > 100 µM (inactive) | > 100 µM (inactive) | > 100 µM (inactive) | > 100 µM (inactive) | > 100 µM (inactive) | > 100 µM (inactive)
7 | O=C(N/N=C/c1cccc(F)c1)c1ccncc1 | > 100 µM (inactive) | > 100 µM (inactive) | – | – | > 100 µM (inactive) | 0.056 µM (active) | – | – | > 100 µM (inactive) | > 100 µM (inactive) | > 100 µM (inactive) | > 100 µM (inactive) | > 100 µM (inactive) | > 100 µM (inactive) | > 100 µM (inactive) | > 100 µM (inactive)
